According to US12514887B2, “Oncolytic tumor viruses and methods of use” (priority 2014, dated 2026):

What was measured:
mTOR = target: T1, mTOR (Homo sapiens, UniProt P42345+P62942); experiment: p70 S6K phosphorylation immunoblot; format: cell-based; settings: targeting concentrations
T1 construct: endogenous in cells

[1] = system: HS578T subcutaneous xenografts; experiment: HS578T subcutaneous xenografts, AdSyn-CO335 study; settings: 28 days, 8 mg/kg rapamycin alone, no virus infection
Experimental: Oncolytic activity of AdSyn-CO335 was tested in vitro and in vivo. HS578T cells were infected with a serial dilution of AdSyn-CO335. At 24, 48, 72 and 96 hours after infection, fresh rapamycin or AP21967 was added to 50 nM. The metabolic activity was quantified by WST-1 assay, and was normalized to uninfected cells with a matching drug treatment. […] To evaluate AdSyn-CO335 in vivo, HS578T subcutaneous xenografts were established in mice. […]
Two perpendicular tumor diameters (l and w) were measured weekly to follow tumor progression. Tumor volumes were calculated by use of the modified ellipsoid formula where vol=½ (l*w^2) (Euhus et al., J Surg Oncol 31(4):229-2341986; Tomayko et al., Cancer Chemother Pharmacol 24(3):148-154, 1989).
On days 0, 3, and 6, mice were injected intratumorally with 2×10^8 PFU of adenovirus diluted in 50 μl PBS. […] Body weight was monitored for toxicity, and tumor sizes were measured while blinded to treatment groups. […]

CO[C@H]1[C@@H](O)[C@H](C)C[C@H](C)/C=C/C=C/C=C(\C)[C@@H](c2c[nH]c3c(C)cccc23)C[C@@H]2CC[C@@H](C)[C@@](O)(O2)C(=O)C(=O)N2CCCC[C@H]2C(=O)O[C@H]([C@H](C)C[C@@H]2CC[C@@H](O)[C@H](OC)C2)C[C@H](O)[C@H](C)/C=C(\C)[C@H]1O [AP21967]
phosphorylation of p70 S6K (mTOR inhibition) (mTOR): does not inhibit mTOR at targeting concentrations

CO[C@H]1C[C@@H]2CC[C@@H](C)[C@@](O)(O2)C(=O)C(=O)N2CCCC[C@H]2C(=O)O[C@H]([C@H](C)C[C@@H]2CC[C@@H](O)[C@H](OC)C2)CC(=O)[C@H](C)/C=C(\C)[C@@H](O)[C@@H](OC)C(=O)[C@H](C)C[C@H](C)/C=C/C=C/C=C/1C [rapamycin, Rapamycin]
mean tumor volume [1]: 229±49 mm^3
